# Data published in US20120252853A1, “Positive allosteric modulators of nicotinic acetylcholine receptor” (H. Lundbeck A/S, priority 2011, published 2012).
# Biological target: human α7 receptor (Homo sapiens, UniProt P36544)
# Test: α7 NNR flux assay (FDSS Ca assay)
# Type: cell-based
# Conditions: positive allosteric modulation; rat GH4C1 cell line stably expressing human α7; acetylcholine 20 μM; % modulation relative to PNU-120596 set to 100%
# Experimental: In this version of the assay, the human α7 receptor is stably expressed in the rat GH4C1 cell line. The assay was used to identify positive allosteric modulators (PAMs) of the α7 receptor. Activation of the channel was measured by loading cells with the calcium-sensitive fluorescent dye Calcium-4 (Assay kit from Molecular Devices), and then measuring real-time changes in fluorescence upon treatment with test compounds.
# The cell line ChanClone GH4C1-nAChRalpha7 from Genionics was seeded from frozen stock in 384-well plates in culture media 2-3 days before experiment to form an approximately 80% confluent layer on the day of experiment.
# The cell culture were split into “22.5 cm×22.5 cm”-plates with approximately 100×10^3 cells/cm^2. After four days incubation in a humidified incubator at 37° C. and 5% CO2, it had grown to an 80-90% confluent layer, and the cells were harvested.
# Two or three days before the experiment the cells were seeded in 384 well plates from Greiner bio-one (781946, CELLCOAT, Poly-D-Lysine, black, μClear).
# The cells were seeded in 384 well plates with 30 μL/well (30000 cells/well) while stirring the cell suspension or otherwise preventing the cells from precipitating. The plates were incubated at room temperature for 30-45 minutes. The plates were placed in incubator for two days (37° C. and 5% CO2).
# The loading buffer was 5% v/v Calcium-4 Kit and 2.5 mM Probenecid in assay buffer.
# Culture media were removed from the cell plates and 20 μL loading buffer was added in each well. The cell plates were placed in trays and incubated 90 minutes in the incubator (37° C.). Thereafter the plates were incubated 30 minutes at room temperature, still protected from light. Now the cell plates were ready to run in the Functional Drug Screening System (FDSS) The assay buffer was HBSS with 20 mM HEPES, pH 7.4 and 3 mM CaCl2.
# 200 nL 10 mM compound solution in DMSO was diluted in 50 μL assay buffer. The final test concentrations in the cell plates were 20-10-5-2.5-1.25-0.625-0.312-0.156-0.078-0.039 μM. Assay buffer and 3 μM PNU-120596 were used for control:
# The agonist acetylcholine was added to a final concentration of 20 μM (˜EC100). In the FDSS7000 the Ex480-Em540 was measured with 1 second intervals. The baseline was made of 5 frames before addition of test compounds, and 95 frames more were made before addition of acetylcholine. The measurement stopped 30 frames after the 2nd addition. Raw data for each well were collected as “the maximum fluorescence count” in the interval 100-131 seconds and as “the average fluorescence count” in the interval 96-100 seconds. The positive allosteric modulation in the 2nd addition was the enhancement of agonist response with test compound compared to agonist alone.
# Results were calculated as % modulation of test compound compared to the reference PNU-120596 set to 100%.
# Sequence of human α7 receptor (P36544 23-502): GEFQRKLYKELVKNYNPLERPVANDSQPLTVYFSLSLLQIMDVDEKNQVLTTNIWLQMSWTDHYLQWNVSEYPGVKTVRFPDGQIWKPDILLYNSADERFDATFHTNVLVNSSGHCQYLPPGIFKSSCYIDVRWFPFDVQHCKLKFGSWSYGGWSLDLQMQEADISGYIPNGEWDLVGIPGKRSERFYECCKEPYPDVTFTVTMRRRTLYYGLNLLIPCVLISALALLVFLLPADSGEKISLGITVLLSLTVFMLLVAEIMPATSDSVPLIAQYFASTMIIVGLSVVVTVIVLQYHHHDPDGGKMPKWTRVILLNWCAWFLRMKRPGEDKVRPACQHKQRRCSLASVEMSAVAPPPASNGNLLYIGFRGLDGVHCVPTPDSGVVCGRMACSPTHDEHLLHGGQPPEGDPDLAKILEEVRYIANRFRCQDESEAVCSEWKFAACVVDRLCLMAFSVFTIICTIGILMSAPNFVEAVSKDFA
row,SMILES,EC50 [µM]
1,"Cc1cc2cc(C(C)NC(=O)c3oncc3C)ccc2[nH]1 (racemic) [Compound 16, 4-methyl-N-[1-(2-methyl-1H-indol-5-yl)ethyl]isoxazole-5-carboxamide]",11
2,"COc1cc(C(=O)NC(C)c2ccc3[nH]c(C)cc3c2)on1 (racemic) [Compound 18, 3-methoxy-N-[1-(2-methyl-1H-indol-5-yl)ethyl]isoxazole-5-carboxamide]",6.7
3,"Cc1cc2cc(CNC(=O)c3sc(C)nc3C)ccc2[nH]1 [Compound 2, 2,4-dimethyl-N-[(2-methyl-1H-indol-5-311)methyl]thiazole-5-carboxamide]",9.8
4,"Cc1cc2cc(CNC(=O)c3cc(C)n(C)n3)ccc2[nH]1 [Compound 12, 1,5-dimethyl-N-[(2-methyl-1H-indol-5-yl)methyl]pyrazole-3-carboxamide]",9.1
5,"Cc1cc2cc(CNC(=O)c3ccc[nH]3)ccc2[nH]1 [Compound 14, N-[(2-methyl-1H-indol-5-yl)methyl]-1H-pyrrole-2-carboxamide]",7.4
6,"Cc1cc2cc(CNC(=O)c3oncc3C)ccc2[nH]1 [Compound 15, 4-methyl-N-[(2-methyl-1H-indol-5-yl)methyl]isoxazole-5-carboxamide]",9.6
7,"Cc1cc(C(=O)NCc2ccc3[nH]cc(C)c3c2)on1 [Compound 17, 3-methyl-N-[(3-methyl-1H-indol-5-34)methyl]isoxazole-5-carboxamide]",11
8,"Cc1cc2cc(CNC(=O)c3ocnc3C)ccc2[nH]1 [Compound 22, 4-methyl-N-[(2-methyl-1H-indol-5-yl)methyl]oxazole-5-carboxamide]",7.2
9,"Cc1cc(C(=O)NCc2cc(C)c3[nH]ccc3c2)on1 [Compound 23, 3-methyl-N-[(7-methyl-1H-indol-5-yl)methyl]isoxazole-5-carboxamide]",7.1
10,"Cc1cc2cc(CNC(=O)c3ccno3)ccc2[nH]1 [Compound 26, N-[(2-methyl-1H-indol-5-yl)methyl]isoxazole-5-carboxamide]",7.37
11,"Cc1cc2cc(CNC(=O)c3cc(=O)n(C)[nH]3)ccc2[nH]1 [Compound 32, 2-methyl-N-[(2-methyl-1H-indol-5-yl)methyl]-3-oxo-1H-pyrazole-5-carboxamide]",11
12,"Cc1cc2cc(CNC(=O)c3ccn(C)c3)ccc2[nH]1 [Compound 37, 1-methyl-N-[(2-methyl-1H-indol-5-yl)methyl]pyrrole-3-carboxamide]",9.8
13,"Cc1cc(C(=O)NCc2cc3cc[nH]c3cc2C)on1 [Compound 39, 3-methyl-N-[(6-methyl-1H-indol-5-yl)methyl]isoxazole-5-carboxamide]",9.1
14,"Cc1cc(C(=O)NCc2ccc3[nH]c(C)c(C)c3c2)on1 [Compound 41, N-[(2,3-dimethyl-1H-indol-5-yl)methyl]-3-methyl-isoxazole-5-carboxamide]",7.7
15,"Cc1cc2cc(CNC(=O)c3cnn(C4COC4)c3)ccc2[nH]1 [Compound 49, N-[(2-methyl-1H-indol-5-yl)methyl]-1-(oxetan-3-yl)pyrazole-4-carboxamide]",6.5
16,"Cc1cc2cc(CNC(=O)c3cnc(C)o3)ccc2[nH]1 [Compound 50, 2-methyl-N-[(2-methyl-1H-indol-5-yl)methyl]oxazole-5-carboxamide]",8.5

# The next compounds have a lower EC50 than those just listed; values first:
row,EC50 [µM],SMILES
1,2.63,"Cc1cc(C(=O)NC(C)c2ccc3[nH]c(C)cc3c2)on1 (racemic) [Compound 33, 3-methyl-N-[1-(2-methyl-1H-indol-5-yl)ethyl]isoxazole-5-carboxamide]"
2,5.2,"Cc1cc(C(=O)NC(C)c2ccc3[nH]c(C(F)(F)F)cc3c2)on1 (single isomer, unassigned) [Compound 97, 3-methyl-N-[1-[2-(trifluoromethyl)-1H-indol-5-yl]ethyl]isoxazole-5-carboxamide]"
3,0.13,"Cc1cc2cc(CNC(=O)c3ccc(Cl)s3)ccc2[nH]1 [Compound 3, 5-Chloro-thiophene-2-carboxylic acid (2-methyl-1H-indol-5-ylmethyl)-amide]"
4,2.9,"Cc1cc2cc(CNC(=O)c3sccc3Cl)ccc2[nH]1 [Compound 4, 3-chloro-N-[(2-methyl-1H-indol-5-yl)methyl]thiophene-2-carboxamide]"
5,4.4,"Cc1cc2cc(CNC(=O)c3cscn3)ccc2[nH]1 [Compound 5, N-[(2-methyl-1H-indol-5-yl)methyl]thiazole-4-carboxamide]"
6,0.52,"Cc1cc2cc(CNC(=O)c3ccsc3)ccc2[nH]1 [Compound 6, N-[(2-methyl-1H-indol-5-yl)methyl]thiophene-3-carboxamide]"
7,1.4,"Cc1cc2cc(CNC(=O)c3cc(C)oc3C)ccc2[nH]1 [Compound 7, 2,5-dimethyl-N-[(2-methyl-1H-indol-5-yl)methy]furan-3-carboxamide]"
8,3.2,"Cc1cc2cc(CNC(=O)c3cc(C)on3)ccc2[nH]1 [Compound 8, 5-methyl-N-[(2-methyl-1H-indol-5-yl)methyl]isoxazole-3-carboxamide]"
9,1.8,"Cc1cc2cc(CNC(=O)c3sccc3C)ccc2[nH]1 [Compound 9, 3-methyl-N-[(2-methyl-1H-indol-5-yl)methyl]thiophene-2-carboxamide]"
10,4,"Cc1cc2cc(CNC(=O)c3ccco3)ccc2[nH]1 [Compound 10, N-[(2-methyl-1H-indol-5-yl)methyl]furan-2-carboxamide]"
11,2.4,"Cc1cc2cc(CNC(=O)c3ccoc3)ccc2[nH]1 [Compound 11, N-[(2-methyl-1H-indol-5-yl)methyl]furan-3-carboxamide]"
12,0.53,"Cc1cc2cc(CNC(=O)c3cccs3)ccc2[nH]1 [Compound 13, N-[(2-methyl-1H-indol-5-yl)methyl]thiophene-2-carboxamide]"
13,4.6,"COc1cc(C(=O)NCc2ccc3[nH]c(C)cc3c2)on1 [Compound 19, 3-methoxy-N-[(2-methyl-1H-indol-5-yl)methyl]isoxazole-5-carboxamide]"
14,3.3,"Cc1cc2cc(CNC(=O)c3nccs3)ccc2[nH]1 [Compound 20, N-[(2-methyl-1H-indol-5-yl)methyl]thiazole-2-carboxamide]"
15,4.7,"Cc1cc2cc(CNC(=O)c3csc(C)n3)ccc2[nH]1 [Compound 25, 2-methyl-N-[(2-methyl-1H-indol-5-yl)methyl]thiazole-4-carboxamide]"
16,0.44,"Cc1cc2cc(CNC(=O)c3c(C)noc3C)ccc2[nH]1 [Compound 27, 3,5-dimethyl-N-[(2-methyl-1H-indol-5-yl)methyl]isoxazole-4-carboxamide]"
17,5.9,"Cc1cc(C(=O)NC(C)c2ccc3[nH]ccc3c2)on1 (stereo not shown) [Compound 38, N-[1-(1H-indol-5-yl)ethyl]-3-methyl-isoxazole-5-carboxamide]"
18,5.6,"Cc1cc2cc([C@@H](C)NC(=O)c3cnc(C)s3)ccc2[nH]1 [Compound 42, 2-methyl-N-[(1R)-1-(2-methyl-1H-indol-5-yl)ethyl]thiazole-5-carboxamide]"
19,2.2,"CCn1cc(C(=O)N[C@H](C)c2ccc3[nH]c(C)cc3c2)cn1 [Compound 43, 1-ethyl-N-[(1R)-1-(2-methyl-1H-indol-5-yl)ethyl]pyrazole-4-carboxamide]"
20,6.1,"Cc1cc2cc([C@@H](C)NC(=O)c3cnn(C)c3)ccc2[nH]1 [Compound 44, 1-methyl-N-[(1R)-1-(2-methyl-1H-indol-5-yl)ethyl]pyrazole-4-carboxamide]"
21,1.5,"Cc1cc(C(=O)N[C@@H](c2ccc3[nH]c(C)cc3c2)C(F)(F)F)on1 [Compound 45, 3-methyl-N-[(1S)-2,2,2-trifluoro-1-(2-methyl-1H-indol-5-yl)ethyl]isoxazole-5-carboxamide]"
22,3.5,"COCCn1cc(C(=O)N[C@H](C)c2ccc3[nH]c(C)cc3c2)cn1 [Compound 46, 1(2-methoxyethyl)-N-[(1R)-1-(2-methyl-1H-indol-5-yl)ethyl]pyrazole-4-carboxamide]"
23,1.7,"Cc1cc2cc([C@@H](C)NC(=O)c3cnn(CCF)c3)ccc2[nH]1 [Compound 48, 1-(2-fluoroethyl)-N-[(1R)-1-(2-methyl-1H-indol-5-yl)ethyl]pyrazole-4-carboxamide]"
24,6.1,"Cc1cc2cc(CNC(=O)c3cnn(C4CCOC4)c3)ccc2[nH]1 (stereo not shown) [Compound 51, N-[(2-methyl-1H-indol-5-yl)methyl]-1-tetrahydrofuran-3-yl-pyrazole-4-carboxamide]"
